One substance from patent US20260297164A1, “ANTI-FIBROTIC PEPTIDES AND USES THEREOF” (Deackt, Inc., priority 2021, published 2026) can be followed below.

The experiment has as its system autophagy in lung fibroblasts. In words: TGF-β1 effect on autophagy (LC3, p62) in lung fibroblasts. The settings on record: TGF-β1 10 ng/ml, 24 h. The class given is cell-based, mouse. How it is done: FIG. 3. CD148 deficiency enhances PI3K/Akt/mTOR signaling which results in low autophagy, high p62 expression in lung fibroblasts. (A) Mouse lung fibroblasts were isolated from Ptprj^fl/fl Col1a2^Cre-ER(T)+/0 mice (Ptprj−/−) and Col1a2^Cre-ER(T)+/0 mice (WT) and then treated with 4-OHT (1 μM) for 24 h. After 4-OHT treatment, cells were exposed to TGF-β1 (10 ng/ml) for 24 h. After stimulation, cells were harvested, and the expression of p-p85 (Tyr458), p-Akt (Ser473), pmTOR (Ser2448), p-p70 S6 kinase (Thr389), p-S6 ribosomal protein (Ser235/236) and CD148 (n=4 for each condition) in lysates was determined by Western immunoblotting and corresponding densitometry (ImageJ software). Data were normalized to corresponding dephospho-forms or GAPDH. (B) WT and Ptprj−/− cells were stimulated with TGF-β1 (10 ng/ml) for 24 h. Then cells were lysed and LC3-I and -II and p62 were measured by western blot (n=4). […] Then, autophagy flux was measured by LC3-II accumulation in the absence or presence of lysosomal acidification inhibitor chloroquine (25 μM) at 2, 4 and 6 h (n=4). […] LC3 puncta positive cells were quantified using ImageJ (D). […]
Polyacrylamide gel electrophoresis and immunoblotting were performed according to standard methods. […] The signals were detected by ECL (Thermo Fisher Scientific, Waltham, MA). […]

Consider TGF-β1, for which the “autophagy (LC3-II relative to LC3-I)” value is on record as “downregulated autophagy” and the p62 expression entry is given as “increased p62 expression”.
